# Assay results: PubChem BioAssay AID1963861 (Molecular Pharmacology Branch, DTP, NCI, 2024)
# Test system: 885724-159-R-J1-PDC KRAS PDC multicell spheroid viability
# Assay: Anticancer human tumor 885724-159-R-J1-PDC patient-derived pancreatic adenocarcinoma cell line growth inhibition [KRAS2]
# Conditions: for IC50: curve of first compound; for viability, T/C: stronger effect = lower value
# Method in brief: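 Combination screen of spheroid viability in tumor-cell co-cultures with endothelial (HUVEC) and mesenchymal stem cell stroma. Each agent was tested in half-log dilutions, topping at clinical Cmax or at 10 microM without a known Cmax.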
# [1] = second compound 0.0316 µM, first compound 0.0316 µM
# [2] = second compound 0.0316 µM, first compound 0.1 µM
# [3] = second compound 0.0316 µM, first compound 0.316 µM
# [4] = second compound 0.0316 µM, first compound 1 µM
# [5] = second compound 0.0316 µM, first compound 3.16 µM
# [6] = second compound 0.0316 µM, first compound 10 µM
# [7] = second compound 0.1 µM, first compound 0.0316 µM
# [8] = second compound 0.1 µM, first compound 0.1 µM
# [9] = second compound 0.1 µM, first compound 0.316 µM
# [10] = second compound 0.1 µM, first compound 1 µM
# [11] = second compound 0.1 µM, first compound 3.16 µM
# [12] = second compound 0.1 µM, first compound 10 µM
# [13] = second compound 0.316 µM, first compound 0.0316 µM
# [14] = second compound 0.316 µM, first compound 0.1 µM
# [15] = second compound 0.316 µM, first compound 0.316 µM
# [16] = second compound 0.316 µM, first compound 1 µM
# [17] = second compound 0.316 µM, first compound 3.16 µM
# [18] = second compound 0.316 µM, first compound 10 µM
# [19] = second compound 1 µM, first compound 0.0316 µM
# [20] = second compound 1 µM, first compound 0.1 µM
# [21] = second compound 1 µM, first compound 0.316 µM
# [22] = second compound 1 µM, first compound 1 µM
# [23] = second compound 1 µM, first compound 3.16 µM
# [24] = second compound 1 µM, first compound 10 µM
# [25] = second compound 3.16 µM, first compound 0.0316 µM
# [26] = second compound 3.16 µM, first compound 0.1 µM
# [27] = second compound 3.16 µM, first compound 0.316 µM
# [28] = second compound 3.16 µM, first compound 1 µM
# [29] = second compound 3.16 µM, first compound 3.16 µM
# [30] = second compound 3.16 µM, first compound 10 µM
# 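Note: spheroids exposed to agents for 7 days before readout.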
Compound,IC50 (second compound 0.0316 µM),IC50 (second compound 0.1 µM),IC50 (second compound 0.316 µM),IC50 (second compound 1 µM),IC50 (second compound 3.16 µM),"viability, T/C [1]","viability, T/C [2]","viability, T/C [3]","viability, T/C [4]","viability, T/C [5]","viability, T/C [6]","viability, T/C [7]","viability, T/C [8]","viability, T/C [9]","viability, T/C [10]","viability, T/C [11]","viability, T/C [12]","viability, T/C [13]","viability, T/C [14]","viability, T/C [15]",further results
COC(=O)c1ccc2c(C(=Nc3ccc(N(C)C(=O)CN4CCN(C)CC4)cc3)c3ccccc3)c(O)[nH]c2c1 + C=CC(=O)N1CCN(c2nc(OCC3CCCN3C)nc3c2CCN(c2cccc4cccc(C)c24)C3)CC1CC#N,2.08 µM,1.86 µM,1.71 µM,1.68 µM,0.431 µM,100%,104%,101%,94.5%,24.4%,0.81%,100%,97%,98.5%,85.1%,19.9%,0.65%,100%,100%,91.5%,"viability, T/C [16]: 83.8%; viability, T/C [17]: 11.3%; viability, T/C [18]: 0.77%; viability, T/C [19]: 90.4%; viability, T/C [20]: 91.4%; viability, T/C [21]: 85.9%; viability, T/C [22]: 84.5%; viability, T/C [23]: 7.97%; viability, T/C [24]: 0.43%; viability, T/C [25]: 58.4%; viability, T/C [26]: 51.1%; viability, T/C [27]: 54.1%; viability, T/C [28]: 38%; viability, T/C [29]: 1.11%; viability, T/C [30]: 0.32%"
COc1cc(Nc2ncc3c(n2)-c2ccc(Cl)cc2C(c2c(F)cccc2OC)=NC3)ccc1C(=O)O + C=CC(=O)N1CCN(c2nc(OCC3CCCN3C)nc3c2CCN(c2cccc4cccc(C)c24)C3)CC1CC#N,> 10 µM,> 10 µM,> 10 µM,> 10 µM,< 0.0316 µM,103%,92.4%,87.9%,92.4%,93.1%,105%,100%,88.8%,88.9%,90.4%,99.4%,100%,89.2%,84%,83.6%,"viability, T/C [16]: 84.2%; viability, T/C [17]: 76.6%; viability, T/C [18]: 89%; viability, T/C [19]: 80%; viability, T/C [20]: 76.9%; viability, T/C [21]: 77.8%; viability, T/C [22]: 75.1%; viability, T/C [23]: 75.7%; viability, T/C [24]: 78.2%; viability, T/C [25]: 46.9%; viability, T/C [26]: 46.3%; viability, T/C [27]: 42.3%; viability, T/C [28]: 54.5%; viability, T/C [29]: 60%; viability, T/C [30]: 44.6%"
COc1cc2nccc(Oc3ccc(NC(=O)C4(C(=O)Nc5ccc(F)cc5)CC4)cc3)c2cc1OC + C=CC(=O)N1CCN(c2nc(OCC3CCCN3C)nc3c2CCN(c2cccc4cccc(C)c24)C3)CC1CC#N,> 10 µM,> 10 µM,> 10 µM,> 10 µM,0.43 µM,109%,114%,113%,99.5%,70.4%,69.9%,111%,108%,102%,111%,72.2%,73%,102%,111%,106%,"viability, T/C [16]: 104%; viability, T/C [17]: 79.7%; viability, T/C [18]: 62.7%; viability, T/C [19]: 111%; viability, T/C [20]: 108%; viability, T/C [21]: 111%; viability, T/C [22]: 102%; viability, T/C [23]: 66.6%; viability, T/C [24]: 59.6%; viability, T/C [25]: 80.1%; viability, T/C [26]: 73.7%; viability, T/C [27]: 55%; viability, T/C [28]: 33.7%; viability, T/C [29]: 12.4%; viability, T/C [30]: 0.35%"
